Data on 7 compounds can be found in publication PMC3726001 (Bioorganic & medicinal chemistry letters, 2010).

In one series the test system is dogs. The note with it: cited from earlier work.
Another series is described as follows: Aqueous solubility. The series is classed as physicochemical.
For a further series, the system named is guinea pigs. The note with it: cited from earlier work.
Series [1] relates to (+)-METH-induced dopaminergic toxicity. The note with it: rats; repeated administration prior to (+)-METH self-administration; cited from earlier work.
Series [2] relates to (+)-methamphetamine (METH) self-administration. The note with it: rats; effect not surmounted by METH; cited from earlier work.
The target of series [3] is [3H]DTBZ-binding site on VMAT2 (Rattus norvegicus, UniProt Q01827). Kind of series: [3H]DTBZ binding to VMAT2.
The target of a further series is VMAT2 (Rattus norvegicus, UniProt Q01827). Kind of series: Inhibition of [3H]DA uptake into synaptic vesicles. Format: biochemical.

In brackets after ≈: the same amount, converted by molar mass.

Sequence of [3H]DTBZ-binding site on VMAT2 (Q01827 whole entry): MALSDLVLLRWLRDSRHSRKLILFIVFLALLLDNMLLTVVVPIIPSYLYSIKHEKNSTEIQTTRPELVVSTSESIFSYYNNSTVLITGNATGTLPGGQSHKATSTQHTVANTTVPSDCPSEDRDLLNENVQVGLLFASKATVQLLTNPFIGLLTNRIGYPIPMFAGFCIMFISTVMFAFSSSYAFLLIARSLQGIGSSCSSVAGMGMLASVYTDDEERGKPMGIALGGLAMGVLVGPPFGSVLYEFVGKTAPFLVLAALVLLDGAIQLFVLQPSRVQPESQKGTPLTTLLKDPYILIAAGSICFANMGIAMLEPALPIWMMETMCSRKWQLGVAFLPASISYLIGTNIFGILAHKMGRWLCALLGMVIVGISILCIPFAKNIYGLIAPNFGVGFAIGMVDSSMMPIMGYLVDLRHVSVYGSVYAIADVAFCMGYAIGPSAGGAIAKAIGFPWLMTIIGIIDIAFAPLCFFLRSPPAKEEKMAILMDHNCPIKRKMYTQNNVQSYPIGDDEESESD
Sequence of VMAT2 (Q01827 whole entry): as above

The solubility is the dissolved amount per volume that the medium holds. A low value points to a poorly soluble substance. Consider `CN1[C@@H](CCc2ccccc2)CCC[C@H]1CCc1ccccc1` [compound 1, N-methyl-cis-2,6-diphenethylpiperidine], for which the respiratory analeptic activity result with dogs is given as “marked respiratory analeptic activity”. In the series “Aqueous solubility”, this compound yielded a solubility of 300 µg/mL (≈ 976 µM). Also, the “pharmacological action in guinea pigs” value in the series on guinea pigs is listed as “peripheral spasmolytic, ‘central stimulating’ action”.
Regarding `CN1[C@@H](CC(=O)c2ccccc2)CCC[C@H]1C[C@H](O)c1ccccc1` [compound 2, lobeline], in series [1], the “effect on (+)-METH-induced dopaminergic toxicity” value was “prevents”. The “effect on (+)-METH self-administration” value in series [2] is given as “inhibits”.
In the case of `CN1[C@@H](CCc2cccnc2)CCC[C@H]1CCc1cccnc1` [compound 14], the “fold less potent than lobelane in binding to the [3H]DTBZ binding site” value in series [3] (compared to lobelane) is listed as “about 30 fold”.
Take `CN1[C@@H](CCc2ccncc2)CCC[C@H]1CCc1ccncc1` [compound 21]: the “binding to the [3H]DTBZ binding site compared to lobelane” value (shortened to “binding … compared to lobelane”) in series [3] (compared to lobelane) is “marginally lower in binding affinity”.
Turning to `CN1[C@@H](CCc2ccc3ccccc3n2)CCC[C@H]1CCc1ccc2ccccc2n1.Cl` [compound 22], in series [3], the “affinity for the [3H]DTBZ binding site” value is on record as “submicromolar affinity”. For the same compound, in series [3] (compared to lobelane), the “binding … compared to lobelane” value is reported as “almost as avidly as lobelane”. At VMAT2, the “potency in inhibiting [3H]DA uptake compared to lobelane” value was “equipotent with lobelane”. Also, in the series “Aqueous solubility”, the “water solubility characteristics compared to lobelane” value is “improved water solubility”.
For the compound `CN1[C@@H](CCc2ccnc3ccccc23)CCC[C@H]1CCc1ccnc2ccccc12.Cl` [compound 23], in series [3] (compared to lobelane), the “binding … compared to lobelane” value is on record as “almost as avidly as lobelane”. Also, the “potency in inhibiting [3H]DA uptake compared to lobelane” value on VMAT2 is listed as “equipotent with lobelane”. Besides, the “water solubility characteristics compared to lobelane” value in “Aqueous solubility” was “improved water solubility”.
`CN1[C@@H](CCc2c[nH]c3ccccc23)CCC[C@H]1CCc1c[nH]c2ccccc12` [compound 24]: in series [3], the “affinity for the [3H]DTBZ binding site” value was “greatly diminished affinity”.
